Data from patent publication US12065445B2, “CDK2 inhibitors and methods of using the same” (Cedilla Therapeutics, Inc., priority 2021, dated 2024).

Tested on: Kuramochi cells
Experiment: BrdU Cell Proliferation Assay
Type: cell-based
Conditions: read-out: BrdU - KURAMOCHI.1: IC50
In short: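 Signal is 450 nm absorbance from a peroxidase anti-BrdU ELISA after a 1-hour BrdU label, background-subtracted and normalized to DMSO-treated wells. Kuramochi cells (2,000 per well) had been exposed to compound for 4 days. Dosing used a 10-point dose response in 3-fold steps.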

| Compound | IC50 [µM] |
| --- | --- |
| CNC(=O)[C@@H](NC(=O)[C@H]1CN(C(=O)c2c[nH]c3ccccc23)CC12CN(C(=O)[C@H]1CC1(C)C)C2)[C@@H](C)OCc1ccccc1 [I-72B] | > 10 |
| C[C@@H](OCC1CCCCC1)[C@H](NC(=O)[C@@H]1CN(C(=O)c2cnn(Cc3ccccc3)c2)CC12CN(C(=O)[C@H]1CC1(C)C)C2)C(=O)N1CCC[C@H]1CN [I-220] | > 10 |
| C[C@H](CNC(=O)C1CN(C(=O)c2cnn(Cc3ccccc3)c2)CC12CN(C(=O)C1CC1(C)C)C2)OCc1ccccc1 (some centres unmarked) [I-7] | > 10 |
| CNC(=O)[C@@H](NC(=O)[C@@H]1CN(C(=O)c2cnn(Cc3ccccc3)c2)CC12CN(C(=O)CC(F)(F)F)C2)[C@@H](C)OCc1ccccc1 [I-87A] | > 10 |
| CNC(=O)[C@@H](NC(=O)[C@@H]1CN(CC2CCOCC2)CC12CN(C(=O)[C@H]1CC1(C)C)C2)[C@@H](C)OCc1ccccc1 [I-68A] | > 10 |
| CNC(=O)[C@@H](NC(=O)[C@H]1CN(C(=O)c2cnn(Cc3ccccc3)c2)CC12CN(C(=O)C1(c3ccc(C(C)(C)C)cc3)CC1)C2)[C@@H](C)OCc1ccccc1 [I-80B] | > 10 |
| CNC(=O)[C@@H](NC(=O)[C@@H]1CN(C(=O)Nc2cnn(Cc3ccccc3)c2)CC12CN(C(=O)[C@H]1CC1(C)C)C2)[C@@H](C)OCc1ccccc1 [I-48A, (S)—N6-(1-benzyl-1H-pyrazol-4-yl)-N8-((2S,3R)-3-(benzyloxy)-1-(methylamino)-1-oxobutan-2-yl)-2-((S)-2,2-dimethylcyclopropane-1-carbonyl)-2,6-diazaspiro[3.4]octane-6,8-dicarboxamide] | > 10 |
| CC1(C)C[C@@H]1C(=O)N1CC2(CN(C(=O)c3cnn(Cc4ccccc4)c3)C[C@H]2C(=O)N[C@H]2CCCN(C(=O)C3CCCCC3)C2)C1 [I-182] | 5 to 10 |
| CNC(=O)[C@@H](NC(=O)[C@H]1CN(C(=O)C2CCNC2)CC12CN(C(=O)[C@H]1CC1(C)C)C2)[C@@H](C)OCc1ccccc1 (some centres unmarked) [I-70B] | > 10 |
| CNC(=O)[C@@H](NC(=O)[C@H]1CN(C(=O)c2cnn(CC3CCOCC3)c2)CC12CN(C(=O)[C@H]1CC1(C)C)C2)[C@@H](C)OCC1CCCCC1 [I-121B] | > 10 |
| CNC(=O)[C@@H](NC(=O)[C@H]1CN(C(=O)c2cnn(Cc3ccccc3)c2)CC12CN(C(=O)C1(F)CC1)C2)[C@@H](C)OCc1ccccc1 [I-71B] | > 10 |
| CNC(=O)[C@@H](NC(=O)[C@H]1CN(Cc2cccnc2)CC12CN(C(=O)[C@H]1CC1(C)C)C2)[C@@H](C)OCc1ccccc1 [I-49B] | > 10 |
| CNC(=O)[C@@H](NC(=O)[C@@H]1CN(C(=O)c2cnn(Cc3ccccc3)c2)CC12CN(C(=O)c1ccccc1)C2)[C@@H](C)OCc1ccccc1 [I-26A] | > 10 |
| CC1(C)C[C@@H]1C(=O)N1CC2(CN(C(=O)c3cnn(Cc4ccccc4)c3)C[C@@H]2C(=O)N2CCCC(Cc3ccccc3)C2)C1 (some centres unmarked) [I-91B] | > 10 |
| CNC(=O)[C@@H](NC(=O)[C@H]1CN(C(=O)c2cnn(C)c2)CC12CN(C(=O)[C@H]1CC1(C)C)C2)[C@@H](C)OCc1ccccc1 [I-33B] | > 10 |
| COC(=O)[C@@H](CO)NC(=O)[C@H]1CN(C(=O)c2cnn(Cc3ccccc3)c2)CC12CN(C(=O)[C@H]1CC1(C)C)C2 [I-187B] | > 10 |
| CNC(=O)[C@@H](NC(=O)[C@H]1CN(C(=O)c2sc(COC)nc2C)CC12CN(C(=O)[C@H]1CC1(C)C)C2)[C@@H](C)OCC1CCCCC1 [I-162B] | > 10 |
| C[C@@H](OCc1ccccc1)C(NC(=O)C1CN(C(=O)c2cnn(Cc3ccccc3)c2)CC12CN(C(=O)[C@H]1CC1(C)C)C2)C(=O)NCCOCCOCCO (some centres unmarked) [I-21] | > 10 |
| CNC(=O)[C@@H](NC(=O)[C@H]1CN(C(=O)c2scnc2C(C)(C)C)CC12CN(C(=O)[C@H]1CC1(C)C)C2)[C@@H](C)OCC1CCCCC1 [I-231B] | > 10 |
| CNC(=O)[C@@H](NC(=O)[C@@H]1CN(C(=O)c2cnn(Cc3ccccc3)c2)CC12CN(C(=O)Cc1ccccc1)C2)[C@@H](C)OCc1ccccc1 [I-25A, (S)-6-(1-benzyl-1H-pyrazole-4-carbonyl)-N-((2S,3R)-3-(benzyloxy)-1-(methylamino)-1-oxobutan-2-yl)-2-(2-phenylacetyl)-2,6-diazaspiro[3.4]octane-8-carboxamide] | > 10 |
